Source: patent US20130045162A1, “DELIVERY SYSTEM FOR SPECIFICALLY TARGETING CANCER CELLS AND METHOD OF USE THEREOF” (MOREHOUSE SCHOOL OF MEDICINE, priority 2011, published 2013)
Where two headings read alike, the source gives them in different places.

Key:
[1] = mouse, in vivo
Procedure: (§3) To mimic advanced (bone metastasis) PCa in ERCC1 variant individuals, B6 and B6.Xpc^−/− mice are injected in left tibia PTEN-CaP2-luc cells. Tumor progression is followed non-invasively in non-castrated mice using our Caliper/Xenogen IVIS-100 imaging system. After tumors emit luminescence >10^5 photons/sec/cm^2, one set of mice is castrated (i.e., to mimic androgen ablation) and the second set is not. […] Mice are imaged every week to monitor tumor progression/regression. When tumors in negative control (saline vehicle treated only) exceed 10^8 photons/sec/cm^2, groups in each set are sacrificed. […] The number and activity of peripheral, lymph node and tumor-associated lymphocytes are isolated and CD4^+ T cells affinity purified and intracellularly and surface stained for flow cytometry analysis of Th1, Th2, Th17, and cell frequency as before. Specifically, the proliferation of purified T lymphocytes after CD3 plus CD28 stimulation with or without FR4 to access Th1/Th2 cell proliferation as before. Along with weekly bioluminescence imaging, blood chemistry and peripherial blood leukocyte subpopulations are monitored to evaluate tumor- or drug-associated toxicities that may be associated with Xpc deficiency.

[2] = test system: PC3-luc and PTEN-CaP2-luc tumor; assay: Example 5 intratibia PC3-luc / PTEN-CaP2-luc tumor model; format: in vivo, mice; conditions: intravenous
Procedure: To mimic advanced (bone metastasis) PCa, NIH-III or B6 male mice receiving vitamin D-deficient or normal diets are injected in left tibia with PC3-luc or PTEN-CaP2-luc cells, respectively. […] Microscopic and morphometric analysis determine the significance of treatments on prostate tumor apoptosis and change in the frequency or survival of PCa cells. […] Blood samples are used to determine serum docetaxel and oxaliplatin PK/PD by mass spectrometry.
NIH-III and B6 male mice are purchased from Jackson Laboratories. Animals are housed and maintained in microbial isolator cages under conventional housing conditions at the Morehouse School of Medicine's animal facility. The guidelines proposed by the committee for the Care of Laboratory Animal Resources Commission of Life Sciences—National Research Council are followed to minimize animal pain and distress. Eight to ten week old mice are injected in the right tibia with 10^6 PTEN-P2-luc (matched benign), PTEN-CaP2-luc (prostate adenocarcinoma), or PC3-luc cells. To assess the affects of hormone ablation on cytotoxic drug or PBM nanoparticle susceptibility, another group of mice is castrated after prostate tumor detection.

[3] = test system: spontaneous PCa in PBcre4+cPten−/− luc+ and PBcre4+cPten−/− luc+ cav1+ mice; assay: Example 6 spontaneous prostate tumor model (cPten−/− luc mice); format: in vivo; conditions: for metastatic lesions: alone or encapsulated
Excerpt: PBM nanoparticle effects on spontaneous tumor and Treg cell development are examined using cPten^−/−PBcre4^+luc^+ or cPten^−/−PBcre4^+luc^+cav1^+ (castrated or noncastrated) mice. Pten^floxed/floxedluc^+ without the Cre gene, which serve as negative tumor controls, and male cPten^−/− PBcre4^+luc^+ or cPten^−/−PBcre4^+luc^+cav1^+ (castrated or noncastrated) mice are imaged every week during PCa development from murine PIN (6 weeks of age), invasive adenocarcinoma (>9 weeks of age), and metastatic lymph node, lung and possibly bone at 12 weeks of age. After 9 weeks of age, tumors are allowed to progress to a net increase of 10^5 photons/sec/cm^2 from luminescence detected in mice <9 weeks of age. A set of mice is castrated to study androgen-independent hormone refractory PCa and another set is not castrated to further study the progression of PTEN-mediated PCa with androgens. […] Microscopic and morphometric analysis determine the significance of treatments on prostate tumor apoptosis and change in the frequency or survival of secretory luminal, basal, neuroendocrine and proliferating PCa cells. […] The proliferation of purified T lymphocytes is measured after CD3 plus CD28 stimulation (i.e., incubation on antibody-coated plates) with or without FR4 to assess Th1/Th2 cell proliferation. […]
Despite being homozygous for Pten gene deletion, the individual PBcre4^+ cPten^−/− luc^+ and PBcre4^+ cPten^−/− luc^+ cav1^+ mice will have different copies of active luciferase (L) gene. The copy number of trans L genes are determined and confirmed by multiplex polymerase chain reaction amplification and Southern blot analysis to insure the number of L genes responsible for luciferase will not change from experiment to experiment. […]

[4] = test system: PTEN-CaP2-luc tumor; assay: Example 7 PTEN-CaP2-luc tumor in B6 and B6.Xpc−/− mice; format: in vivo
Procedure: as §3

[5] = test system: PrEC (primary prostatic epithelial cells); assay: PrEC apoptosis, ImageStream (TUNEL/DRAQ5); format: cell-based; conditions: 20 uM, 1 hour, wash, 48 hours
Procedure: (§1) DU145 (prostate cancer cell line) and PrEC (primary prostatic epithelial cells) cells were treated with cisplatin solution or cisplatin-containing and cancer cell-binding peptides (I, II, III, and IV)- or folate-conjugated polycaprolactone-coated PBM nanoparticles, or uncoated nanoparticles. […] Apoptotic cells were identified using two standard image based features from the IDEAS package: Area and Spot Small Total. Condensed apoptotic nuclei have lower nuclear area value as compared to live cells.

[6] = test system: MDA-MB-231-Luc xenografts; assay: tumor regression in MDA-MB-231-luc tumor-bearing mice; format: in vivo; conditions: 8 mg/kg/week, intravenous injection
[7] = parameters: species or system mice; conditions: mouse, in vivo
Procedure: Serum is collected at sacrifice and urea N2, creatine, P, Ca, Na, K, Cl, bicarbonate, alkaline phosphatase, alanine transaminase (ALT), aspartate aminotransferase (AST), creatine kinase (CK), cholesterol, total bilirubin, total protein, albumin, globulin, albumin/globulin ratio, glucose and amylase are measured.

[8] = test system: normal prostatic epithelial cells (PrEC and RWPE-1); assay: normal prostatic epithelial cell death in vitro; format: cell-based; conditions: 20 μM
[9] = test system: PCa cells (PC3 and PTEN-CaP2); assay: PCa cell death / apoptosis in vitro; format: cell-based, human; mouse; conditions: 20 μM
[10] = test system: normal (primary) breast epithelial cells; assay: normal breast epithelial cell death / apoptosis in culture; format: cell-based; conditions: 20 μM, after 24 hr of culture
Excerpt: (§2) The folate coated PBM nanoparticles are further loaded with docetaxel, carboplatin, or cisplatin. […] However, PBM nanoparticles containing 10× less chemotherapeutic agent were taken up and induced the same level of BrCa cell apoptosis as cisplatin, docetaxel, or carboplatin solution, respectively, but not primary breast epithelial cells. […] Accordingly, the novel PBM nanoparticles of the present application enhance BrCa therapy efficacy, reduce toxicities, and increase breast tumor immunity.

[11] = test system: BrCa cells (MCF-7, MDA-MB-231, and 4T1); assay: BrCa cell death / apoptosis in culture; format: cell-based; conditions: 20 μM, after 24 hr of culture
Excerpt: as §2

[12] = test system: PC3-luc tumor; assay: tumor regression in PC3-luc tumor-bearing mice; format: in vivo; conditions: 8 mg/kg/week, intravenous injection
[13] = test system: DU145 (prostate cancer cell line); assay: DU145 apoptosis, ImageStream (TUNEL/DRAQ5); format: cell-based; conditions: 20 uM, 1 hour, wash, 48 hours
Procedure: as §1

[14] = target: FR2 (Homo sapiens, UniProt P14207); conditions: read-out: affinity for FR2; cited from earlier work
Chain of FR2 (P14207 17-230): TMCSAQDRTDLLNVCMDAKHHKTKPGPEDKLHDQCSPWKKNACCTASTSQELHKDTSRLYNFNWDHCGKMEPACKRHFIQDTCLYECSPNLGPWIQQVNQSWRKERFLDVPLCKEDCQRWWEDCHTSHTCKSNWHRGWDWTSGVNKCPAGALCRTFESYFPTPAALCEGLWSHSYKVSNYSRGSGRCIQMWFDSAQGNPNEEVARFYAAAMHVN

[15] = target: FR1 (Homo sapiens, UniProt P15328); conditions: read-out: affinity for FR1; cited from earlier work
Chain of FR1 (P15328 25-234): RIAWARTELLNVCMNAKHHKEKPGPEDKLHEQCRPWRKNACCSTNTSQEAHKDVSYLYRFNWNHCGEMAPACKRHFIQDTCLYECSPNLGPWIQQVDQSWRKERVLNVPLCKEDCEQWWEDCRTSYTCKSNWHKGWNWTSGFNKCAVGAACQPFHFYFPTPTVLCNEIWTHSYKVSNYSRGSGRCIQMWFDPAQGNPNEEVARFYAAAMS

[16] = Example 7 systemic toxicities in B6 and B6.Xpc−/− mice; conditions: B6.Xpc−/− mice compared to B6 mice
Procedure: as §3

[17] = cited from earlier work
[18] = optimal dose 10 mg/kg/week, both B6 and B6.Xpc−/− mice

CC(=O)O[C@@]12CO[C@@H]1C[C@H](O)[C@@]1(C)C(=O)[C@H](O)C3=C(C)[C@@H](OC(=O)[C@H](O)[C@@H](NC(=O)OC(C)(C)C)c4ccccc4)C[C@@](O)([C@@H](OC(=O)c4ccccc4)[C@H]21)C3(C)C [docetaxel]
toxicities (elevated AST & ALT, hypocalcemia and hypoglycemia) [1]: significantly higher toxicities | tumor regression ([2]; optimal dose 10 mg/kg/week): tumor regression | tumor regression ([2]; suboptimal dose 0.1 mg/kg/week): not suboptimal | metastatic lesions [3]: fewer metastatic lesions | tumor regression [4, 18]: tumor regression | tumor regression ([4]; suboptimal dose 0.1 mg/kg/week): not suboptimal

[NH2][Pt]([NH2])([Cl])[Cl] [Cisplatin solution, cisplatin]
apoptosis of PrEC cells [5]: apoptosis of both DU145 and PrEC cells | tumor regression [6]: significant (and similar) tumor regression | Albumin [7]: 4.2 ± 0.6 g/dL | Albumin/Globulin ratio [7]: 4.22 ± 2.41 | Alk Phos [7]: 160 ± 34.64 U/L | Amylase [7]: 2062 ± 371.44 U/L | Bicarbonate [7]: 10.2 ± 1.04 mmol/fL | CK [7]: 3975 ± 45 U/L | Calcium [7]: 1.2 ± 0 mg/dL | Cholestrol [7]: 84 ± 10.39 mg/dL | Cl [7]: 106 ± 3.46 mEq/l | Creatinin [7]: 0.8 ± 0.35 mg/dL | Globulins [7]: 1.2 ± 0.6 g/dL | Glucose [7]: 52 ± 17.32 mg/dL | K [7]: 9.2 ± 012 mEg/l | Na [7]: 152 ± 3.46 mEq/l | Phosphorus [7]: 72 ± 0 mg/dL | Total Bilirubin [7]: 0.6 ± 0 mg/dL | Total protein [7]: 5 ± 0.35 g/dL | Urea N2 [7]: 36 ± 0 mg/dL | cell death [8]: > 90% | cell death [9]: > 90% | cell death [10]: > 90% | cell death [11]: > 90% | tumor regression [12]: significant (and similar) tumor regression | apoptosis of DU145 cells [13]: apoptosis of both DU145 and PrEC cells

CN1c2c(nc(N)[nH]c2=O)NC[C@@H]1CNc1ccc(C(=O)N[C@@H](CCC(=O)O)C(=O)O)cc1 [6S 5-methyltetrahydrofolate]
Kd [14]: 1 nM | Kd [15]: 55 nM

O=C1[O][Pt]2([NH][C@@H]3CCCC[C@H]3[NH]2)[O]C1=O [oxaliplatin]
toxicities (elevated AST & ALT, hypocalcemia and hypoglycemia) [16]: significantly higher toxicities | tumor regression ([2]; optimal dose 10 mg/kg/week): tumor regression | tumor regression ([2]; suboptimal dose 0.1 mg/kg/week): not suboptimal | metastatic lesions [3]: fewer metastatic lesions | neuroendocrine differentiation ([3]; mouse, in vivo): reduced | tumor regression [4, 18]: tumor regression | tumor regression ([4]; suboptimal dose 0.1 mg/kg/week): not suboptimal

COc1cc(/C=C/C(=O)CC(=O)/C=C/c2ccc(O)c(OC)c2)ccc1O [Free curcumin, diferuloylmethane]
solubility in water [17]: completely insoluble in water
